# Measured values from PMC6201879, “N-substituted phenylbenzamides of the niclosamide chemotype attenuate obesity related changes in high fat diet fed mice” (PLoS ONE, 2018).
# Like-named read-outs stand apart in the source and are kept apart here.
# Columns and labels:
# [1] = tested on: Salmonella typhimurium TA98; assay: Ames assay, strain TA98; settings: for Mean Revertant Colony Counts TA98 SP9+: with S9; for Mean Revertant Colony Counts TA98 S9-: without S9; for fold increase in the mean number of revertant colonies, TA98: any concentration tested, vs negative control
# p-AMPK Thr-172 = assay: Western blot of p-AMPK Thr-172 in liver of HFD-fed mice; settings: HFD fed-DIO mice; 10mg/kg for 12 days; vs sham
# [2] = tested on: Salmonella typhimurium (TA98, TA100, TA1535 and TA1537) and Escherichia coli (WP2 uvrA (pKM101)); assay: Ames assay, overall outcome and cytotoxicity across strains; settings: for cytotoxicity in the Ames assay: relative to the negative control, presence and absence of S9 mix
# [3] = tested on: fatty acid synthase (FAS); assay: Western blot of fatty acid synthase in liver of HFD-fed mice; settings: HFD fed-DIO mice; 10mg/kg for 12 days; vs sham
# [4] = tested on: carbonic anhydrase-III (CAIII); assay: Western blot of carbonic anhydrase III in liver of HFD-fed mice; settings: HFD fed-DIO mice; 10mg/kg for 12 days; vs sham
# [5] = tested on: Phosphorylated AMPK (Thr-172); assay: High-throughput phosphorylated AMPK (Thr-172) TR-FRET assay in HepG2 cells; format: cell-based, human; settings: HepG2 TR-FRET dose response between 0.625 and 10 μM, 4 hours; also Western blot
# Experimental: Phosphorylated AMPK (Thr-172) TR-FRET Assay Kit was purchased from CisBio (Bedford MA). HepG2 [HB-8065] cells were trypsinized, harvested and counted using Countess II FL automated cell counter (Thermo Fisher Scientific). Cells were then seeded in Poly-D-Lysine coated 96-well black optical plates at a concentration of 10,000 cells per well in 50μL growth medium. After 24-hours, the media was removed and replaced with 50μL of fresh growth media containing compounds. Five concentrations of each compound were prepared, ranging from 10 to 0.625 μM and applied to columns 2–11 of the cell plate. Control wells contained DMSO (column 1-minimum response control) or 500199 (column 12-maximum response control). The final DMSO concentration was 0.45%. Cells were cultured for 4 hours before cells were lysed in 50μL of lysis buffer for 30 minutes at room temperature according to assays protocol. Following lysis, 16μL of lysate was transferred to white 384 well small volume assay plate and 4μL of antibody dyes were added per assay protocol.
# Following overnight incubation, quantitation was performed on a PHERAstar (BMG), using the HTRF protocol with an excitation wavelength of 337nm and emission wavelengths of 665nm and 620nm. The ratio between emission spectra (665/620) was assessed for each well individually and averaged for triplicate samples. Data are presented as mean ratio ± SE. The differences between the control (DMSO) and the compound treated wells were analyzed using two-way ANOVA and Dunnett’s post hoc test. A value of p<0.05 was considered to be significant.
# Fig 5 Validation of AMPK pathway activation by phenylbenzamide derivatives in HepG2 cells. A) Cells were seeded at 10,000 cells per well 24 hours prior to treating cells with indicated concentration of compound or DMSO (CTL) for 4 hours. 16μL of cell lysate was incubated with HTRF phospho-AMPK detection reagents and fluorescence emission read at 665nm and 620nm using a PHERAstar platereader. The mean and standard deviation of the HTRF Ratio from three replicate wells is shown. The unstimulated (DMSO) and positive controls lysates are shown in green and red respectively.
# [6] = Body weight changes in HFD-fed mice; format: in vivo, mouse; settings: 10mg/kg I.P daily for 12 days
# Experimental: We next measured body weight changes in HFD-fed animals prior to treatment with niclosamide or phenylbenzamide derivatives and after 12 days, prior to sacrifice. During this time, all animals (including sham) lost some weight.
# 20-week old animals were treated IP with 500199 at 10 or 25mg/kg by IP over a time-course of 9 days. At day 0, 3, 6 and 9 animals were weighed and tissue samples were collected for standard histological scoring of hepatic steatosis and automated quantitative histomorphometric scoring.
# [7] = tested on: Salmonella typhimurium TA1535; settings: for Mean Revertant Colony Counts TA-1535 SP9+: with S9; for Mean Revertant Colony Counts TA-1535 S9-: without S9
# [8] = tested on: Salmonella typhimurium TA1537; settings: for Mean Revertant Colony Counts TA-1537 SP9+: with S9; for Mean Revertant Colony Counts TA-1537 S9-: without S9
# [9] = tested on: Escherichia coli WP2 uvrA (pKM101); assay: Ames assay, strain WP2 uvrA (pKM101); settings: for Mean Revertant Colony Counts WP2 uvrA (pKM101) SP9+: with S9; for Mean Revertant Colony Counts WP2 uvrA (pKM101) S9-: without S9
# [10] = any concentration tested, vs negative control
compound,measurement,setting,value
"CC(C)(C)c1ccc(O)c(C(=O)Nc2ccc(C(=O)O)cc2Cl)c1 [Compound 500200, 4-[(5-tert-butyl-2-hydroxybenzene)amido]-3-chlorobenzoic acid]",Mean Revertant Colony Counts TA98 SP9+,[1]; 1.5 ug/Well,7.7
same,Mean Revertant Colony Counts TA98 S9-,[1]; 1.5 ug/Well,9.0
same,Mean Revertant Colony Counts TA98 SP9+,[1]; 4 ug/Well,6.3
same,Mean Revertant Colony Counts TA98 S9-,[1]; 4 ug/Well,12.0
same,Mean Revertant Colony Counts TA98 SP9+,[1]; 10 ug/Well,9.0
same,Mean Revertant Colony Counts TA98 S9-,[1]; 10 ug/Well,8.7
same,Mean Revertant Colony Counts TA98 SP9+,[1]; 25 ug/Well,7.3
same,Mean Revertant Colony Counts TA98 S9-,[1]; 25 ug/Well,9.0
same,Mean Revertant Colony Counts TA98 SP9+,[1]; 64 ug/Well,9.0
same,Mean Revertant Colony Counts TA98 S9-,[1]; 64 ug/Well,7.7
same,Mean Revertant Colony Counts TA98 SP9+,[1]; 160 ug/Well,11.0
same,Mean Revertant Colony Counts TA98 S9-,[1]; 160 ug/Well,5.0
same,Mean Revertant Colony Counts TA98 SP9+,[1]; 400 ug/Well,7.0
same,Mean Revertant Colony Counts TA98 S9-,[1]; 400 ug/Well,9.7
same,Mean Revertant Colony Counts TA98 SP9+,[1]; 1000 ug/Well,4.3
same,Mean Revertant Colony Counts TA98 S9-,[1]; 1000 ug/Well,4.3
same,"fold increase in the mean number of revertant colonies, TA98",[1],< 2 fold
same,phosphorylation of AMPK at Thr-172 in liver,p-AMPK Thr-172,stimulated phosphorylation of AMPK at Thr-172
same,Ames assay outcome (mutagenicity),[2],negative
same,cytotoxicity in the Ames assay,[2],cytotoxicity was exhibited at the highest concentrations in both strains
same,FAS protein levels in liver,[3],reduced
same,CAIII protein levels in liver,[4],reduced
"CC(C)(C)c1cc(C(=O)Nc2ccc(C(=O)O)cc2Cl)c(O)c(C(C)(C)C)c1 [Compound 600453, 3-Chloro-4-[(3,5-di-tert-butyl-2-hydroxybenzene)amido]benzoic acid]",phosphorylation of AMPK (Figs 5 and 4D),[5],stimulated phosphorylation of AMPK
same,body weight change vs sham,[6],lost significantly more weight
same,Mean Revertant Colony Counts TA-1535 SP9+,[7]; 1.5 ug/Well,2.7
same,Mean Revertant Colony Counts TA-1535 S9-,[7]; 1.5 ug/Well,4.0
same,Mean Revertant Colony Counts TA-1535 SP9+,[7]; 4 ug/Well,3.7
same,Mean Revertant Colony Counts TA-1535 S9-,[7]; 4 ug/Well,3.7
same,Mean Revertant Colony Counts TA-1535 SP9+,[7]; 10 ug/Well,2.7
same,Mean Revertant Colony Counts TA-1535 S9-,[7]; 10 ug/Well,1.7
same,Mean Revertant Colony Counts TA-1535 SP9+,[7]; 25 ug/Well,2.3
same,Mean Revertant Colony Counts TA-1535 S9-,[7]; 25 ug/Well,2.7
same,Mean Revertant Colony Counts TA-1535 SP9+,[7]; 64 ug/Well,3.0
same,Mean Revertant Colony Counts TA-1535 S9-,[7]; 64 ug/Well,1.7
same,Mean Revertant Colony Counts TA-1535 SP9+,[7]; 160 ug/Well,3.3
same,Mean Revertant Colony Counts TA-1535 S9-,[7]; 160 ug/Well,4.0
same,Mean Revertant Colony Counts TA-1535 SP9+,[7]; 400 ug/Well,2.0
same,Mean Revertant Colony Counts TA-1535 S9-,[7]; 400 ug/Well,2.7
same,Mean Revertant Colony Counts TA-1535 SP9+,[7]; 1000 ug/Well,2.0
same,Mean Revertant Colony Counts TA-1535 S9-,[7]; 1000 ug/Well,2.7
same,"fold increase in the mean number of revertant colonies, TA1535",[7]; [10],< 3 fold
same,Mean Revertant Colony Counts TA-1537 SP9+,[8]; 1.5 ug/Well,2.3
same,Mean Revertant Colony Counts TA-1537 S9-,[8]; 1.5 ug/Well,0.7
same,Mean Revertant Colony Counts TA-1537 SP9+,[8]; 4 ug/Well,3.3
same,Mean Revertant Colony Counts TA-1537 S9-,[8]; 4 ug/Well,1.3
same,Mean Revertant Colony Counts TA-1537 SP9+,[8]; 10 ug/Well,1.7
same,Mean Revertant Colony Counts TA-1537 S9-,[8]; 10 ug/Well,2.3
same,Mean Revertant Colony Counts TA-1537 SP9+,[8]; 25 ug/Well,1.7
same,Mean Revertant Colony Counts TA-1537 S9-,[8]; 25 ug/Well,1.3
same,Mean Revertant Colony Counts TA-1537 SP9+,[8]; 64 ug/Well,1.0
same,Mean Revertant Colony Counts TA-1537 S9-,[8]; 64 ug/Well,0.3
same,Mean Revertant Colony Counts TA-1537 SP9+,[8]; 160 ug/Well,3.3
same,Mean Revertant Colony Counts TA-1537 S9-,[8]; 160 ug/Well,0.0
same,Mean Revertant Colony Counts TA-1537 SP9+,[8]; 400 ug/Well,0.7
same,Mean Revertant Colony Counts TA-1537 S9-,[8]; 400 ug/Well,1.0
same,Mean Revertant Colony Counts TA-1537 SP9+,[8]; 1000 ug/Well,3.7
same,Mean Revertant Colony Counts TA-1537 S9-,[8]; 1000 ug/Well,0.3
same,"fold increase in the mean number of revertant colonies, TA1537",[8]; [10],< 3 fold
same,Mean Revertant Colony Counts TA98 SP9+,[1]; 1.5 ug/Well,5.0
same,Mean Revertant Colony Counts TA98 S9-,[1]; 1.5 ug/Well,4.3
same,Mean Revertant Colony Counts TA98 SP9+,[1]; 4 ug/Well,8.3
same,Mean Revertant Colony Counts TA98 S9-,[1]; 4 ug/Well,3.7
same,Mean Revertant Colony Counts TA98 SP9+,[1]; 10 ug/Well,7.7
same,Mean Revertant Colony Counts TA98 S9-,[1]; 10 ug/Well,3.3
same,Mean Revertant Colony Counts TA98 SP9+,[1]; 25 ug/Well,6.3
same,Mean Revertant Colony Counts TA98 S9-,[1]; 25 ug/Well,3.0
same,Mean Revertant Colony Counts TA98 SP9+,[1]; 64 ug/Well,8.7
same,Mean Revertant Colony Counts TA98 S9-,[1]; 64 ug/Well,6.0
same,Mean Revertant Colony Counts TA98 SP9+,[1]; 160 ug/Well,6.3
same,Mean Revertant Colony Counts TA98 S9-,[1]; 160 ug/Well,3.7
same,Mean Revertant Colony Counts TA98 SP9+,[1]; 400 ug/Well,7.3
same,Mean Revertant Colony Counts TA98 S9-,[1]; 400 ug/Well,2.0
same,Mean Revertant Colony Counts TA98 SP9+,[1]; 1000 ug/Well,4.0
same,Mean Revertant Colony Counts TA98 S9-,[1]; 1000 ug/Well,3.7
same,"fold increase in the mean number of revertant colonies, TA98",[1],< 2 fold
same,Mean Revertant Colony Counts WP2 uvrA (pKM101) SP9+,[9]; 1.5 ug/Well,36.0
same,Mean Revertant Colony Counts WP2 uvrA (pKM101) S9-,[9]; 1.5 ug/Well,31.7
same,Mean Revertant Colony Counts WP2 uvrA (pKM101) SP9+,[9]; 4 ug/Well,35.0
same,Mean Revertant Colony Counts WP2 uvrA (pKM101) S9-,[9]; 4 ug/Well,20.7
same,Mean Revertant Colony Counts WP2 uvrA (pKM101) SP9+,[9]; 10 ug/Well,31.7
same,Mean Revertant Colony Counts WP2 uvrA (pKM101) S9-,[9]; 10 ug/Well,29.3
same,Mean Revertant Colony Counts WP2 uvrA (pKM101) SP9+,[9]; 25 ug/Well,33.3
same,Mean Revertant Colony Counts WP2 uvrA (pKM101) S9-,[9]; 25 ug/Well,15.7
same,Mean Revertant Colony Counts WP2 uvrA (pKM101) SP9+,[9]; 64 ug/Well,28.0
same,Mean Revertant Colony Counts WP2 uvrA (pKM101) S9-,[9]; 64 ug/Well,23.0
same,Mean Revertant Colony Counts WP2 uvrA (pKM101) SP9+,[9]; 160 ug/Well,23.0
same,Mean Revertant Colony Counts WP2 uvrA (pKM101) S9-,[9]; 160 ug/Well,20.0
same,Mean Revertant Colony Counts WP2 uvrA (pKM101) SP9+,[9]; 400 ug/Well,15.3
same,Mean Revertant Colony Counts WP2 uvrA (pKM101) S9-,[9]; 400 ug/Well,9.0
same,Mean Revertant Colony Counts WP2 uvrA (pKM101) SP9+,[9]; 1000 ug/Well,9.0
same,Mean Revertant Colony Counts WP2 uvrA (pKM101) S9-,[9]; 1000 ug/Well,3.7
same,"fold increase in the mean number of revertant colonies, WP2 uvrA (pKM101)",[9]; [10],< 2 fold
same,phosphorylation of AMPK at Thr-172 in liver,p-AMPK Thr-172,stimulated phosphorylation of AMPK at Thr-172
same,Ames assay outcome (mutagenicity),[2],negative
same,cytotoxicity in the Ames assay,[2],no cytotoxicity was exhibited at any concentration
same,FAS protein levels in liver,[3],reduced
same,CAIII protein levels in liver,[4],reduced
